Measured values from US8440830B2, “Tetrahydro-fused pyridines as histone deacetylase inhibitors” (4SC AG, priority 2007, dated 2013).

System: A549 NSCLC cells
Experiment: Cellular cytotoxicity assay (Alamar Blue), A549
Assay type: cell-based
Details: Homo sapiens, 72 h, upper end given as ≧100, read-out: IC50 (μM), cytotoxicity towards A549 NSCLC cells
In short: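 Resazurin-to-resorufin fluorescence (ex 544, em 590 nm, after 4 h) gave viability as % of untreated cells following 72 h compound exposure at 37 °C. Compounds were added in semi-logarithmic dilutions 24 h post-seeding, quadruplicate wells; IC50 fitted by non-linear regression of concentration-effect curves.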

SMILES	IC50 [µM]
Cc1ccc(S(=O)(=O)Nc2ccc(N3CCc4nc(C(=O)Nc5ccccc5N)sc4C3)cc2)cc1 [Example 199, N-(2-aminophenyl)-5-(4-{[(4-methylphenyl)sulfonyl]amino}phenyl)-4,5,6,7-tetrahydro[1,3]thiazolo[5,4-c]pyridine-2-carboxamide]	≥ 0.2
CC(C)c1ccc(N)c(NC(=O)c2nc3c(s2)CN(C(=S)Nc2cccnc2)CC3)c1 [Example 108, N-(2-amino-5-isopropylphenyl)-5-[(pyridin-3-ylamino)carbonothioyl]-4,5,6,7-tetrahydro[1,3]thiazolo[5,4-c]pyridine-2-carboxamide]	≥ 0.2
Nc1ccccc1NC(=O)c1nc2c(s1)CN(S(=O)(=O)Cc1ccccc1)CC2 [Example 151, N-(2-aminophenyl)-5-(benzylsulfonyl)-4,5,6,7-tetrahydro[1,3]thiazolo[5,4-c]pyridine-2-carboxamide]	≥ 0.2
Nc1ccccc1NC(=O)c1nc2c(s1)CN(c1ccc(C(F)(F)F)cn1)CC2 [Example 195, N-(2-aminophenyl)-5-[5-(trifluoromethyl)pyridin-2-yl]-4,5,6,7-tetrahydro[1,3]thiazolo[5,4-c]pyridine-2-carboxamide]	≥ 0.2
Nc1ccccc1NC(=O)c1nc2c(s1)CN(C(=O)C(=O)NC1CCC(c3ccncc3)CC1)CC2 (stereo not shown) [Example 67, N-(2-aminophenyl)-5-{oxo[(4-pyridin-4-ylcyclohexyl)amino]acetyl}-4,5,6,7-tetrahydro[1,3]thiazolo[5,4-c]pyridine-2-carboxamide]	≥ 0.2
COc1ccc(N=C(NC#N)N2CCc3nc(C(=O)Nc4cc(OC)ccc4N)sc3C2)cc1 [Example 124, N-(2-amino-5-methoxyphenyl)-5-{(cyanoamino)[(4-methoxyphenyl)imino]-methyl}-4,5,6,7-tetrahydro[1,3]thiazolo[5,4-c]pyridine-2-carboxamide]	≥ 0.2
COc1ccc(N)c(NC(=O)c2nc3c(s2)CN(C(=O)Nc2ccc(F)cc2)CC3)c1 [Example 51, N^2-(2-amino-5-methoxyphenyl)-N^5-(4-fluorophenyl)-6,7-dihydro[1,3]thiazolo[5,4-c]pyridine-2,5(4H)-dicarboxamide]	≥ 0.2
CNC(=O)N1CCc2nc(C(=O)Nc3ccccc3N)sc2C1 [Example 17, N^2-(2-aminophenyl)-N^5-methyl-6,7-dihydro[1,3]thiazolo[5,4-c]pyridine-2,5(4H)-dicarboxamide]	≥ 0.2
Nc1ccccc1NC(=O)c1nc2c(s1)CN(C(=S)Nc1cccnc1)CC2 [Example 103, N-(2-aminophenyl)-5-[(pyridin-3-ylamino)carbonothioyl]-4,5,6,7-tetrahydro[1,3]thiazolo[5,4-c]pyridine-2-carboxamide]	≥ 0.2
COc1ccc(NC(=O)N2CCc3nc(C(=O)Nc4cc(C(C)C)ccc4N)sc3C2)cc1 [Example 45, N^2-(2-amino-5-isopropylphenyl)-N^5-(4-methoxyphenyl)-6,7-dihydro[1,3]thiazolo[5,4-c]pyridine-2,5(4H)-dicarboxamide]	≥ 0.2
COc1ccc(OCC(=O)N2CCc3nc(C(=O)Nc4cc(C(C)C)ccc4N)sc3C2)cc1 [Example 178, N-(2-amino-5-isopropylphenyl)-5-[(4-methoxyphenoxy)acetyl]-4,5,6,7-tetrahydro[1,3]thiazolo[5,4-c]pyridine-2-carboxamide]	≥ 0.2
Cc1ccc(NC(=O)C(=O)N2CCc3nc(C(=O)Nc4ccccc4N)sc3C2)nc1 [Example 76, N-(2-aminophenyl)-5-{[(5-methylpyridin-2-yl)amino](oxo)acetyl}-4,5,6,7-tetrahydro[1,3]thiazolo[5,4-c]pyridine-2-carboxamide]	≥ 0.2
Nc1ccccc1NC(=O)c1nc2c(s1)CN(C(=O)C(=O)NCc1ccccc1)CC2 [Example 85, N-(2-aminophenyl)-5-[(benzylamino)(oxo)acetyl]-4,5,6,7-tetrahydro[1,3]thiazolo[5,4-c]pyridine-2-carboxamide]	≥ 0.2
